Data set [1] deals with BaF3. The data set is described as follows: Antiproliferative activity against mouse BaF3 cells stably expressing KIF5B-RET-G810C mutant incubated for 72 hrs by CCK-8 assay. The format is functional, cell-based. The conditions noted are these: BaF3, 72 h.
A short description of data set [2]: Potency index, ratio of selpercatinib IC50 to test compound IC50 for antiproliferative activity against mouse BaF3 cells stably expressing KIF5B-RET-G810R mutant incubated for 72 hrs by CCK-8 assay. Type of data set: functional.
In data set [3] the target is Protein cereblon/Eukaryotic peptide chain release factor GTP-binding subunit ERF3A (Mus musculus) (UniProt Q8C7D2+Q8R050). Description: PROTAC activity at CRBN/GSPT1 in mouse BaF3 cells overexpressing KIF5B-RET assessed as induction of GSPT1 degradation at 10 to 1000 nM incubated for 6 hrs by Western blot analysis. The conditions noted are these: dose 10-1000 nM. Type of data set: cell-based.
Sequence of Protein cereblon/Eukaryotic peptide chain release factor GTP-binding subunit ERF3A (Mus musculus) (Q8C7D2 whole entry, looked up): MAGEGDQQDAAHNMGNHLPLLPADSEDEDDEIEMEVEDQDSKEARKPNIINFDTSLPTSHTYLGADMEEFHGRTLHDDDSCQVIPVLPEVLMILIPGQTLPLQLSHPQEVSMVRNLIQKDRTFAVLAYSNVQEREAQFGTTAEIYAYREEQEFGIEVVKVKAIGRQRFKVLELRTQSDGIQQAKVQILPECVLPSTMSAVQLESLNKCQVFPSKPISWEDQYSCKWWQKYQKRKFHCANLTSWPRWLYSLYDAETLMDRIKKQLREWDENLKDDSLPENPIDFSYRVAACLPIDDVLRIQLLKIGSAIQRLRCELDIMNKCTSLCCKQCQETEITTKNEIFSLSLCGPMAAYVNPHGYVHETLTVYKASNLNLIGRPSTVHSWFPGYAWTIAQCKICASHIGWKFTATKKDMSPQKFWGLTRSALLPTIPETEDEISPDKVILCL
Sequence of Protein cereblon/Eukaryotic peptide chain release factor GTP-binding subunit ERF3A (Mus musculus) (Q8R050 whole entry, looked up): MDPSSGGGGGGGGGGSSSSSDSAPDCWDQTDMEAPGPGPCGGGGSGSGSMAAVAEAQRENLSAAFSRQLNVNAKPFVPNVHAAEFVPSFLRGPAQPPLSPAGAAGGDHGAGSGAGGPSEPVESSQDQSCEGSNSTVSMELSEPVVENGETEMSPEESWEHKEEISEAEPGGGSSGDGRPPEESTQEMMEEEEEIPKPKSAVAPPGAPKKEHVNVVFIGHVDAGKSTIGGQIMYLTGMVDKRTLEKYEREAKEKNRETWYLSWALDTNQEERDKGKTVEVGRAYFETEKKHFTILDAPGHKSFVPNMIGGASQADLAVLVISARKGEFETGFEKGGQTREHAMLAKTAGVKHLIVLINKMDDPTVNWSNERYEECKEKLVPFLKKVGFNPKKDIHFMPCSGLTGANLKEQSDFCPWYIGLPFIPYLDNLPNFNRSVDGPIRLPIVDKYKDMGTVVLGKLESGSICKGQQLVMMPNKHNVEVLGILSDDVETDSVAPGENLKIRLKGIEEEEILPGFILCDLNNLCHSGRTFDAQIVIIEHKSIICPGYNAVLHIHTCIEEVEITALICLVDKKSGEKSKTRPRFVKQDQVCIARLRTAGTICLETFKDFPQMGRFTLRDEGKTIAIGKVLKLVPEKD

Data set [4] concerns BaF3. The data set is described as follows: PROTAC activity at CRBN/IKZF1 in mouse BaF3 cells overexpressing KIF5B-RET assessed as induction of […] at 10 to 1000 nM incubated for 6 hrs by Western blot analysis. The format is cell-based. The conditions noted are these: dose 10-1000 nM.
For data set [5], the system named is BaF3. Description: Antiproliferative activity against mouse BaF3 cells stably expressing KIF5B-RET-V804M mutant incubated for 72 hrs by CCK-8 assay. Type of data set: functional, cell-based. The conditions noted are these: BaF3, 72 h.
Data set [6] concerns BaF3. The data set is described as follows: Antiproliferative activity against mouse BaF3 cells stably expressing KIF5B-RET-G810S mutant incubated for 72 hrs by CCK-8 assay. The conditions noted are these: BaF3, 72 h. Type of data set: functional, cell-based.
The nature of data set [7]: Effect on Shc protein level in mouse BaF3 cells stably expressing wildtype KIF5B-RET assessed as fold change at 11.1 nM measured after 6 hrs by Western blot analysis. The format is functional.
A short description of data set [8]: Effect on Shc protein level in mouse BaF3 cells stably expressing KIF5B-RET-V804M mutant assessed as fold change at 33.3 nM measured after 6 hrs by Western blot analysis (reference value: 1). Type of data set: functional.
Data set [9] can be described thus: Effect on RET protein level in mouse BaF3 cells stably expressing KIF5B-RET-G810C mutant assessed as fold change at 100 nM measured after 6 hrs by Western blot analysis (reference value: 1). The format is functional.
Data set [10] can be described thus: Effect on RET protein level in mouse BaF3 cells stably expressing KIF5B-RET-G810C mutant assessed as fold change at 300 nM measured after 6 hrs by Western blot analysis (reference value: 1). Type of data set: functional.
The nature of data set [11]: Induction of apoptosis in mouse BaF3 cells stably expressing wildtype KIF5B-RET fusion protein assessed as early apoptotic cells at 11.1 nM measured after 48 hrs by Annexin V-FITC/7-AAD staining based flow cytometric analysis (reference value: 9.92 %). Type of data set: functional.
Data set [12] can be described thus: Induction of apoptosis in mouse BaF3 cells stably expressing KIF5B-RET-G810C mutant assessed as necrotic cells at 300 nM measured after 48 hrs by Annexin V-FITC/7-AAD staining based flow cytometric analysis (reference value: 2.89 %). Type of data set: functional.
Data set [13] is described as follows: Cmax in male ICR mouse at 10 mg/kg, ip measured after 24 hrs by LC-MS/MS analysis. The format is ADME, organism-based. The conditions noted are these: in vivo.
Data set [14] in a line: Bioavailability in male ICR mouse at 10 mg/kg, ip measured after 24 hrs by LC-MS/MS analysis. Type of data set: ADME, organism-based. The conditions noted are these: in vivo.
For data set [15], the system named is Kinesin-1 heavy chain/ Tyrosine-protein kinase receptor RET (Homo sapiens), P07949+P33176 [G810C]. Description: In vivo PROTAC activity at CRBN/KIF5B-RET-G810C mutant in male BALB/c mouse model implanted with mouse BaF3 cells stably expressing KIF5B-RET-G810C mutant assessed as induction of RET degradation in tumor at 10 mg/kg, ip measured after 3 days by Western blotting analysis relative to control. The conditions noted are these: time 3.0 day. The format is functional, organism-based.

Structures are written as SMILES. Calls of active or inactive are those of the source. No cut-off for these calls is given here.

For the molecule `COc1ccc(CN2C3CC2CN(c2ccc(-c4cc(-c5cnn(C6CCN(CCCCCC#Cc7cccc8c7CN(C7CCC(=O)NC7=O)C8=O)CC6)c5)cn5ncc(C#N)c45)cn2)C3)cn1` (stereo not given), the IC50 turned out to be 50 nM in the data set on BaF3 [1], 40 nM in the data set with BaF3 [5] and 90 nM in the data set on BaF3 [6]. In data set [2], the “Ratio IC50” value is reported as ~7. Further, the outcome (in [3]; in the data set on BaF3 [4]) was inactive. For the same molecule, the “fold change (FC)” value in [7] turned out to be 1; in [8], 1; in data set [9], 0.4; in [10], 0.3. Besides, the Activity in data set [11] was determined as 11.31%; in data set [12], 2.15%; in data set [15], 47%. Also, in [13], the Cmax was determined as 68 ng/mL. The molecule further gave a bioavailability in [14] of 17.3%.

For the origin of these results see ChEMBL document CHEMBL6087474, “Discovery of an Efficacious RET PROTAC Degrader with Enhanced Antiproliferative Activity against Resistant Cancer Cells Harboring RET Solvent-Front Mutations” (J Med Chem, 2025).
